{
  "source": "ChEMBL document CHEMBL1201862",
  "about": "“PubChem BioAssay data set” (2004)",
  "test_in_all_cases": "growth of human tumour cells (NCI), 48 h",
  "key": {"786-0": {"test_system": "786-0"}, "BT-549": {"test_system": "BT-549"}, "EKVX": {"test_system": "EKVX"}, "HCC 2998": {"test_system": "HCC 2998"}, "HCT-15": {"test_system": "HCT-15"}, "HT-29": {"test_system": "HT-29"}, "K562": {"test_system": "K562"}, "M19-MEL": {"test_system": "M19-MEL"}, "MDA-MB-435": {"test_system": "MDA-MB-435"}, "NCI-H226": {"test_system": "NCI-H226"}, "NCI/ADR-RES": {"test_system": "NCI/ADR-RES"}, "OVCAR-3": {"test_system": "OVCAR-3"}, "RPMI-8226": {"test_system": "RPMI-8226"}, "SF-268": {"test_system": "SF-268"}, "SK-MEL-28": {"test_system": "SK-MEL-28"}, "SK-MEL-5": {"test_system": "SK-MEL-5"}, "T47D": {"test_system": "T47D"}, "TK-10": {"test_system": "TK-10"}, "U-251": {"test_system": "U-251"}, "UACC-257": {"test_system": "UACC-257"}},
  "note": "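Growth conditions: 96-well plates. Treatment: test compound, 48 hours, 5 concentrations. Analysis: linear interpolation between bracketing concentrations; unreached endpoints set to highest concentration. GI50 is the concentration that inhibits growth by half.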 Active and inactive are the calls of the source. Cut-off read from the data, not from the text of the source: active = GI50 up to about 1.1 µM and inactive = higher.",
  "data": [
    {"smiles": "O=C1C(=O)N(c2cccc(C(F)(F)F)c2)C(=O)C(=O)C1c1nc2ccccc2s1", "values": [
      {"measurement": "GI50", "setting": "786-0", "result": "72.3 µM (inactive)"},
      {"measurement": "GI50", "setting": "BT-549", "result": "> 100 µM (inactive)"},
      {"measurement": "GI50", "setting": "EKVX", "result": "> 100 µM (inactive)"},
      {"measurement": "GI50", "setting": "HCC 2998", "result": "99.5 µM (inactive)"},
      {"measurement": "GI50", "setting": "HCT-15", "result": 39.6, "unit": "µM"},
      {"measurement": "GI50", "setting": "HT-29", "result": "78.3 µM (inactive)"},
      {"measurement": "GI50", "setting": "K562", "result": "51.2 µM (inactive)"},
      {"measurement": "GI50", "setting": "M19-MEL", "result": "45.1 µM (inactive)"},
      {"measurement": "GI50", "setting": "MDA-MB-435", "result": "> 100 µM (inactive)"},
      {"measurement": "GI50", "setting": "NCI-H226", "result": "> 81.8 µM (inactive)"},
      {"measurement": "GI50", "setting": "NCI/ADR-RES", "result": "45.2 µM (inactive)"},
      {"measurement": "GI50", "setting": "OVCAR-3", "result": "48.6 µM (inactive)"},
      {"measurement": "GI50", "setting": "RPMI-8226", "result": "> 80 µM (inactive)"},
      {"measurement": "GI50", "setting": "SF-268", "result": "98.2 µM (inactive)"},
      {"measurement": "GI50", "setting": "SK-MEL-28", "result": "> 100 µM (inactive)"},
      {"measurement": "GI50", "setting": "SK-MEL-5", "result": "> 100 µM (inactive)"},
      {"measurement": "GI50", "setting": "T47D", "result": "> 100 µM (inactive)"},
      {"measurement": "GI50", "setting": "TK-10", "result": "> 90.8 µM (inactive)"},
      {"measurement": "GI50", "setting": "U-251", "result": "62.4 µM (inactive)"},
      {"measurement": "GI50", "setting": "UACC-257", "result": "> 92 µM (inactive)"}
    ]},
    {"smiles": "COc1ccc(/C=N\\N2C(=O)Cc3ccccc32)cc1", "values": [
      {"measurement": "GI50", "setting": "786-0", "result": "> 100 µM (inactive)"},
      {"measurement": "GI50", "setting": "EKVX", "result": "> 100 µM (inactive)"},
      {"measurement": "GI50", "setting": "HCC 2998", "result": "25.4 µM (inactive)"},
      {"measurement": "GI50", "setting": "HCT-15", "result": "> 100", "unit": "µM"},
      {"measurement": "GI50", "setting": "HT-29", "result": "> 100 µM (inactive)"},
      {"measurement": "GI50", "setting": "K562", "result": "95.5 µM (inactive)"},
      {"measurement": "GI50", "setting": "M19-MEL", "result": "> 100 µM (inactive)"},
      {"measurement": "GI50", "setting": "NCI-H226", "result": "> 100 µM (inactive)"},
      {"measurement": "GI50", "setting": "OVCAR-3", "result": "> 100 µM (inactive)"},
      {"measurement": "GI50", "setting": "RPMI-8226", "result": "> 100 µM (inactive)"},
      {"measurement": "GI50", "setting": "SF-268", "result": "74.3 µM (inactive)"},
      {"measurement": "GI50", "setting": "SK-MEL-28", "result": "> 100 µM (inactive)"},
      {"measurement": "GI50", "setting": "SK-MEL-5", "result": "> 100 µM (inactive)"},
      {"measurement": "GI50", "setting": "TK-10", "result": "59.6 µM (inactive)"},
      {"measurement": "GI50", "setting": "U-251", "result": "48.4 µM (inactive)"},
      {"measurement": "GI50", "setting": "UACC-257", "result": "> 100 µM (inactive)"}
    ]}
  ]
}
